Measurements from PMC9563442, “Purification, Characterization, and Immobilization of a Novel Protease-Resistant α-Galactosidase from Oudemansiella radicata and Its Application in Degradation of Raffinose Family Oligosaccharides from Soymilk” (Foods, 2022).
Each block holds one compound with its values, some of them ahead of it.

How the values were obtained:
Assay type in all cases: biochemical, Hymenopellis radicata
[1] = target: T1, ORG (O. radicata α-galactosidase); experiment: pNPG hydrolysis, absorbance at […] nm, Dixon plot; settings: mixed-type inhibition; pNPG 1.5-3 mM as substrate, NaAc-HAc pH 4.6, 40 °C
T1 construct: native, purified from commercial dry fruiting bodies; 74 kDa by gel filtration, SDS-PAGE bands 50 and 24 kDa

[2] = system: T1, ORG (O. radicata α-galactosidase); experiment: reducing sugar release (DNS method), Michaelis-Menten plot; settings: free enzyme, 50 °C
From the text: reducing sugar release (DNS method), Michaelis-Menten plot on ORG (O. radicata α-galactosidase)

[3] = system: T1, ORG (O. radicata α-galactosidase); experiment: p-nitrophenol release, absorbance at […] nm, Michaelis-Menten plot; settings: free enzyme; pNPG 0.5-4 mM, NaAc-HAc pH 4.6, 40 °C

Ki [1]: 1.86 mM
Structure (SMILES): OC[C@H]1O[C@H](OC[C@H]2OC(O)[C@H](O)[C@@H](O)[C@@H]2O)[C@H](O)[C@@H](O)[C@H]1O (some centres unmarked) [melibiose]

Km ([2]; stachyose 2-40 mM, read-out: Stachyose / Km): 19 mM
Structure (SMILES): OC[C@H]1O[C@H](OC[C@H]2O[C@H](OC[C@H]3O[C@H](O[C@]4(CO)O[C@H](CO)[C@@H](O)[C@@H]4O)[C@H](O)[C@@H](O)[C@@H]3O)[C@H](O)[C@@H](O)[C@H]2O)[C@H](O)[C@@H](O)[C@H]1O [stachyose]

Ki [1]: 5.94 mM
Structure (SMILES): OC[C@H]1OC(O)[C@H](O)[C@@H](O)[C@H]1O (some centres unmarked) [galactose]

Km ([2]; raffinose 2-40 mM, read-out: Raffinose / Km): 16.5 mM
Structure (SMILES): OC[C@H]1O[C@H](OC[C@H]2O[C@H](O[C@]3(CO)O[C@H](CO)[C@@H](O)[C@@H]3O)[C@H](O)[C@@H](O)[C@@H]2O)[C@H](O)[C@@H](O)[C@H]1O [raffinose]

Km [3]: 0.58 mM
Structure (SMILES): O=[N+]([O-])c1ccc(O[C@H]2O[C@H](CO)[C@H](O)[C@H](O)[C@H]2O)cc1 [4-nitrophenyl-α-D-galactopyranoside]
